Measured values from patent US20250302798A1, “STING INHIBITORS AND USE THEREOF” (CARMEL HAIFA UNIVERSITY ECONOMIC CORPORATION LTD., priority 2022, published 2025).
“Also recorded” adds a separate entry of the source.

Tests used:
STING-IFN-β axis = assay: Zymosan A peritonitis in vivo, macrophage cytokines and STING pathway Western blotting; parameters: species or system mice; settings: 50 μM compound, 100 μl/mouse
Method: FIGS. 6A-6D include graphs and an image showing that compound 2.1 activates in vivo the STING-IFN-β axis and enhances biased cytokine production by macrophages. Mice were injected with zymosan A for 66 h. Twenty-four 24 post peritonitis initiation (PPI) the mice were injected with DMSO (0.4%), 4 mg/kg DMXAA or 50 μM compound 2.1 (100 μl/mouse). Macrophages were collected from the spleen (6A-6C), or peritoneum (6D) and incubated for 24 h with LPS (1 μg/ml) or vehicle (6A-6C) or lysed and analyzed by Western blotting immediately for the STING pathway (6D). Culture supernatants from incubated macrophages were analyzed by ELISA for the secretion of TNFα (6A), IL-10 (6B), and IL-6 (6C). Results are mean±SEM of 3 experiments (6A-6C) or representative blots. One-way ANOVA, and Tukey HSD test * P≤0.05, ** P≤0.01.

liver fibrosis = assay: CCl4 mouse liver fibrosis model, liver Western blot; assay type: in vivo, C57BL/6 mice; settings: CCl4 mice, 50 μM compound
Method: FIGS. 7A-7E include an image and graphs showing that compound 2.1 facilitates anti-fibrotic responses during the resolution of liver fibrosis. Mice were injected I.P. with the fibrosis-inducing agent CCl4 twice a week. After 28 days the mice were injected with vehicle (DMSO 0.4%), or 50 μM compound 2.1 ([…]). After 2 additional days, livers were collected and analyzed by western blot (7A) for their expression of collagen 1 and the M2 marker arginase 1, as well as β-actin (loading control). Alternatively, livers were analyzed for their mRNA expression of the IFN-responsive genes Ifitml (7B) and Ifitm3 (7C), or the anti-fibrotic protein Rgs2 (7D). Liver interstitial fluids were evaluated for the anti-fibrotic cytokine IL-10 (7E) levels. Results are representative from 4 (A) or mean±SEM of 8 mice (7B-7E). One-way ANOVA, and Tukey HSD test ** P≤0.01, **** P≤0.0001.
FIGS. 9A-9E include an image of Western blot analysis and vertical bar graphs showing that compound 2.1 reduces production of fibrosis-related factors. (9A) Western blot analysis showing that treatment with compound 2.1 (c2.1) in a liver fibrosis model results in: reduced production of Collagen 1 (Col-1), and of Arginase 1, and increased production of IFN-β. (9B-9E) Vertical bar graphs showing densitometric analysis of (9A) for Col-1 (9B), Arginase-1 (9C), IFN-β (9D), and alpha smooth muscle actin (αSMA; 9E). (9B-9E) results are mean±SEM. One-way ANOVA, and Tukey HSD test * P≤0.05, ** P≤0.01.
Male C57BL/6 mice were randomly assigned to experimental groups at approximately eight weeks old. Mice were injected I.P. with CCl4 (1 ml/kg) three times a week for six weeks with 0.2 ml of a 10 percent CCl4 in corn oil. Forty-eight hours before sacrifice, the vehicle group was injected I.P. with CCL4, while the treatment group was injected with CCl4 and 50 μM of compound 2.1. Then the liver was collected in a RIPA buffer for Western blot analysis.
Protein extracts of liver tissue were separated by sodium dodecyl sulfate polyacrylamide gel electrophoresis (SDS-PAGE), transferred to PVDF membranes (Bio-Rad Laboratories, Inc.), blocked with 5% skimmed milk powder, and immunoblotted with antibodies targeting: IFN-β, arginase 1, collagen 1, or β-actin. Then, the membranes were washed, incubated with the appropriate horseradish peroxidase (HRP)-conjugated secondary antibody, and developed using WesternBright™ ECL (Advansta Inc). Band density was quantified with FIJI ImageJ software.

STING = molecular target: T1, STING (Homo sapiens, UniProt Q86WV6); assay: Cytokine expression and STING signaling in PMA-differentiated U937 macrophages; assay type: cell-based; settings: 50 nM, compared with c-GAMP 1 μg/ml
T1 construct: endogenous in cells; host or cells: U937 cells differentiated with PMA
T1 sequence (Q86WV6 whole entry H232R): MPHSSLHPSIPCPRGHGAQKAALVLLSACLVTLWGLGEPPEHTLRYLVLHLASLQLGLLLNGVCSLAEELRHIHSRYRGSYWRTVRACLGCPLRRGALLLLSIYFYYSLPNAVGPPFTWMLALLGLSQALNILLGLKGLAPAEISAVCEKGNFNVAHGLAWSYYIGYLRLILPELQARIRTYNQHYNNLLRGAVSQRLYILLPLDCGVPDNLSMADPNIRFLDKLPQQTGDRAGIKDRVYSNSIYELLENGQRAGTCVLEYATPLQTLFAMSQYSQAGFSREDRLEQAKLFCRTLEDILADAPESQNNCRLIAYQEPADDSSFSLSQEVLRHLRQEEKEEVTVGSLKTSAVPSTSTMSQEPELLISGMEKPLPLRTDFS
Method: FIGS. 8A-8G include graphs and an image showing that compound 2.1 activates cytokine expression and STING signaling in human macrophages in a similar fashion to cGAMP. Human monocytes of the U937 cell line were treated with phorbol 12-myristate 13-acetate (PMA; 50 ng/ml) for 48 hours. Then, differentiated macrophages (4×10^6 cells) were treated with c-di-GMP (10 μg/ml), c-GAMP (1 μg/ml), compound 2.1 (50 nM) or vehicle for 8 (8A-8F) or 2 (8G) hours. Cells (8A-8D, and 8G) or culture supernatants (8E-8F), were collected and analyzed by RT-PCR, ELISA, and immunoblotting for: TNFα (8A), IL-6 (8B), IL-10 (8C), IFN-β (8D), IL-10 (8E), and TNFα (8F), or STING-IFN-β-RGS2 pathway proteins and actin as a loading control (8G). Results are representative mean±SEM from 3 experiments. One-way ANOVA, and Tukey HSD test ** P≤0.01, P<0.001, **** P≤0.0001.

STING signaling (STING-IFN-β-RGS2 pathway proteins) (STING; 2 hours): activates
Cytokine expression (TNFα, IL-6, IL-10, IFN-β) (STING; 8 hours): activates
Structure (SMILES): c1ccc(CSc2nnc(CCCCCCCCc3nnc(SCc4ccccc4)o3)o2)cc1 [Compound 2.1, 2-(benzylsulfanyl)-5-{8-[5-(benzylsulfanyl)-1,3,4-oxadiazol-2-yl]octyl}-1,3,4-oxadiazole]
STING-IFN-β axis in vivo (STING-IFN-β axis; 24 h post peritonitis initiation, peritoneal macrophages): activates
Biased cytokine production by macrophages (TNFα, IL-10, IL-6) (STING-IFN-β axis; spleen macrophages ex vivo ± LPS 1 μg/ml 24 h): enhances
Production of fibrosis-related factors (liver fibrosis): reduces
Production of Arginase 1 in liver (liver fibrosis; Western blot): reduction; also recorded: reduced
Production of Collagen 1 in liver (liver fibrosis; Western blot): reduction; also recorded: reduced
Production of IFN-β in liver (liver fibrosis; Western blot): elevated production; also recorded: increased
Anti-fibrotic responses during the resolution of liver fibrosis (liver fibrosis; livers after 2 days): facilitates
